Data published in ChEMBL document CHEMBL4483862, “Open-source discovery of chemical leads for next-generation chemoprotective antimalarials” (2018).

Test system: Plasmodium berghei
Experiment: Luciferase/luciferin-expressing antifolate-resistant parasites were used to infect a culture of HepG2 cells that were pre-incubated with compounds. Infected hepatocytes emit light due to the luciferase reaction. Assay results are presented as the percent inhibition of light emission compared to control. […]
Assay type: functional
Details: sporozoite; for IC50: read-out: LUCIFERASE INFECTION ASSAY - IC50; for IC90: read-out: LUCIFERASE INFECTION ASSAY - IC90

O=C(O)c1ccc(CN2C(=O)CCC2=O)cc1
IC50: > 10 µM | IC90: > 10 µM

Cc1nc(-c2ccc3c(c2)CC(=O)N3C)cs1
IC50: > 10 µM | IC90: > 10 µM

Cc1sc2ncnc(Sc3nc4ncccn4n3)c2c1C
IC50: > 2 µM | IC90: > 2 µM

CC1CCN(Cc2ccc(CNC(=O)CCn3cncn3)cc2)CC1
IC50: > 10 µM | IC90: > 10 µM

COc1ccc(OCc2noc(CN3CCc4ccccc43)n2)cc1
IC50: > 2 µM | IC90: > 2 µM

O=C1c2ccccc2NC(c2cc(Br)cs2)N1C1CC1 (configuration not stated)
IC50: > 10 µM | IC90: > 10 µM

Cc1nn(CC(=O)N2c3ccccc3NC(=O)CC2C)c(=O)c(C#N)c1C (configuration not stated)
IC50: > 2 µM | IC90: > 2 µM

FC(F)(F)c1nnc2ccc(Oc3ccc(Cl)c4ccccc34)nn12
IC50: > 10 µM | IC90: > 10 µM

O=C(NCC1COc2ccccc2O1)c1cc2ccccc2cc1O (configuration not stated)
IC50: > 10 µM | IC90: > 10 µM

Cc1cc(C(=O)OCC(=O)c2ccc[nH]2)c2c(C)noc2n1
IC50: > 10 µM | IC90: > 10 µM

CCCc1noc(CCC(=O)Nc2nc3cc4c(cc3s2)OCCO4)n1
IC50: > 10 µM | IC90: > 10 µM

COc1ccc2nc(C)cc(N3CCc4c(sc(N)c4C#N)C3)c2c1
IC50: > 10 µM | IC90: > 10 µM

CC(NCc1nc(N)nc(N(C)C)n1)c1ccccc1Cl (configuration not stated)
IC50: > 10 µM | IC90: > 10 µM

O=C(Nc1cccnc1-n1cccn1)c1csc(-c2ccc(Cl)cc2)n1
IC50: > 2 µM | IC90: > 2 µM

CC(=O)c1ccc(N2CCN(c3nc4ccccc4s3)CC2)cc1
IC50: 3.62 µM | IC90: > 10 µM

CC(C)C(=O)NC1CCCC(C)C1C (configuration not stated)
IC50: > 2 µM | IC90: > 2 µM

Cc1cc(CSc2nnc(CN3CCCCC3)n2-c2ccc(F)cc2)on1
IC50: > 10 µM | IC90: > 10 µM

CCc1ccc(S(=O)(=O)Oc2ccccc2NC(C)=O)cc1
IC50: > 10 µM | IC90: > 10 µM

CN1CCN(S(=O)(=O)c2ccc(SCC3CCCCC3)nc2)CC1
IC50: > 10 µM | IC90: > 10 µM

COc1ccc(-c2nc(C=C3C(=O)c4ccccc4C3=O)cs2)cc1
IC50: > 10 µM | IC90: > 10 µM

Clc1ccccc1CNc1ncnc2ccsc12
IC50: > 10 µM | IC90: > 10 µM

Cc1ccc2nc(CNc3ccccc3-c3ccccc3)cc(=O)n2c1
IC50: > 10 µM | IC90: > 10 µM

CC(=O)c1c[nH]c(C(=O)OCC(=O)NCCc2ccc(C(C)C)cc2)c1
IC50: > 2 µM | IC90: > 2 µM

CCCN1C(=O)C(=O)N(CN2CCc3sccc3C2)C1=O
IC50: > 2 µM | IC90: > 2 µM

Nc1nc(CN2CCN(Cc3cccc4cccnc34)CC2)nc2ccccc12
IC50: > 10 µM | IC90: > 10 µM

O=C(CN1CCN(C(=O)c2ccc(=O)n(Cc3ccccc3)n2)CC1)NC1CC1
IC50: > 10 µM | IC90: > 10 µM

O=C(c1c[nH]c2ccccc12)C(NCc1ccc(F)cc1)c1ccccc1 (configuration not stated)
IC50: > 10 µM | IC90: > 10 µM

COC(=O)c1c(CSc2nnnn2C)nc2ccccc2c1-c1ccccc1
IC50: > 10 µM | IC90: > 10 µM

CC(=O)Nc1cc(C(=O)CSc2ncnc3sccc23)ccc1O
IC50: > 10 µM | IC90: > 10 µM

Cc1ccsc1C(=O)OCC(=O)Nc1cc(C(C)(C)C)no1
IC50: > 10 µM | IC90: > 10 µM

CCNc1nnc(SC(C)C(=O)Nc2ccc(OC(F)F)cc2)s1 (configuration not stated)
IC50: > 10 µM | IC90: > 10 µM

CN1CCN(c2ccc(CNS(=O)(=O)c3cccs3)cn2)CC1
IC50: > 2 µM | IC90: > 2 µM

CC(C)(C)OC(=O)N1CCN(CN2C(=O)NC3(CCCCC3)C2=O)CC1
IC50: > 10 µM | IC90: > 10 µM

CN(C(=O)Cn1nnc(-c2cccc(C(F)(F)F)c2)n1)C1(C#N)CCCCC1
IC50: > 10 µM | IC90: > 10 µM

Cc1c(C(=O)NCCc2ccc3c(c2)OCCO3)cnn1-c1ccc(Cl)cc1
IC50: > 2 µM | IC90: > 2 µM

Cc1cc(NC(=O)CCc2c(-c3ccc(F)cc3)[nH]c3ccc(F)cc23)no1
IC50: > 10 µM | IC90: > 10 µM

CC(C)C(=O)NCc1coc(-c2cccs2)n1
IC50: > 10 µM | IC90: > 10 µM

CCOc1ccc(C(=O)COC(=O)c2c3ccccc3cc3ccccc23)cc1
IC50: > 10 µM | IC90: > 10 µM

Cc1ccc2c(c1)CCCN2CC(=O)Nc1sccc1C(N)=O
IC50: > 10 µM | IC90: > 10 µM

O=c1cc(CNc2ccccc2N2CCCCC2)nc2sccn12
IC50: 9.19 µM | IC90: > 10 µM

O=c1c2sccc2ncn1Cc1cc(-c2cccs2)on1
IC50: > 10 µM | IC90: > 10 µM

c1ccc(C(Sc2ncnc3sccc23)c2ccccc2)cc1
IC50: > 10 µM | IC90: > 10 µM

O=C(OC(C(=O)N1CCOCC1)c1ccccc1)c1cccc(-n2cccc2)c1 (configuration not stated)
IC50: > 2 µM | IC90: > 2 µM

CC(NC(=O)c1cn(C)c2ccccc12)c1ccccn1 (configuration not stated)
IC50: > 2 µM | IC90: > 2 µM

CC(C)n1ncc2c(C(=O)Nc3ccn(C)n3)cc(-c3cccs3)nc21
IC50: > 10 µM | IC90: > 10 µM

COCc1c(C(=O)Nc2nnc(C3CCCCC3)s2)oc2ccccc12
IC50: > 10 µM | IC90: > 10 µM

Cc1c(Cl)cccc1NC(=O)CNC(=O)CN1CCc2ccccc2C1
IC50: > 10 µM | IC90: > 10 µM

Cc1cn2c(/C=C/c3nc4cc(Cl)ccc4o3)c(C)nc2s1
IC50: > 10 µM | IC90: > 10 µM

Cc1occc1C(=O)N1CCN(C(=O)c2ccc3ccccc3c2)CC1
IC50: > 2 µM | IC90: > 2 µM

CC(NC(=O)C1CCCN(C(=O)OC(C)(C)C)C1)c1ccc(-n2ccnc2)cc1 (configuration not stated)
IC50: > 2 µM | IC90: > 2 µM

CCOc1cc(C(=O)NC2CCCCCC2)ccc1OCc1cccnc1
IC50: > 2 µM | IC90: > 2 µM

Cc1nc2ccccc2nc1SCC(=O)Nc1ccccc1N1CCOCC1
IC50: > 10 µM | IC90: > 10 µM

Cc1ccccc1COC(=O)C1(NC(=O)NCc2ccccc2)CCCC1
IC50: > 10 µM | IC90: > 10 µM

CCn1nnnc1Sc1ncnc2scc(-c3ccc(C)cc3)c12
IC50: > 10 µM | IC90: > 10 µM

O=C(CCc1nc2ccccc2n(CCc2ccccc2)c1=O)N1CCC1
IC50: > 10 µM | IC90: > 10 µM

Cc1ccc(C(=O)CN2C(=O)C(=O)N(C)C2=O)cc1C
IC50: > 10 µM | IC90: > 10 µM

O=c1[nH]c2ccc(-c3csc(-c4ccsc4)n3)cc2[nH]1
IC50: 4.23 µM | IC90: > 10 µM

CCN(CC)Cc1ccccc1CNC(=O)c1cccc2ccccc12
IC50: > 10 µM | IC90: > 10 µM

CN(C)C(CNC(=O)c1cc(C2CC2)nn1-c1ccccc1)Cc1ccccc1 (configuration not stated)
IC50: > 10 µM | IC90: > 10 µM

COc1cccc2sc(NC(=O)C3CCN(C(C)=O)CC3)nc12
IC50: > 10 µM | IC90: > 10 µM

C=CCc1cc(C(=O)Nc2ccc3oc(C)nc3c2)cc(OC)c1OC
IC50: 4.31 µM | IC90: > 10 µM

Cc1ccsc1CN(C)Cc1nnc(C(=O)Nc2ccc(Cl)cc2)s1
IC50: > 10 µM | IC90: > 10 µM

Cc1cc2ccccc2n1CC(=O)NCc1ccc(NC(=O)c2ccco2)cc1
IC50: 5.73 µM | IC90: > 10 µM

NC(=O)N1CC=C(c2ccc(Oc3ncnc4sccc34)cc2)CC1
IC50: > 2 µM | IC90: > 2 µM

O=C(Nc1ccc(Cl)c(C(F)(F)F)c1)c1[nH]nc2ccccc12
IC50: > 10 µM | IC90: > 10 µM

COc1ccc(CNC(=O)c2ccc3c(c2)NC(=O)C(C)S3)cc1OC (configuration not stated)
IC50: > 10 µM | IC90: > 10 µM

Cc1cc(C)n2nc(SC(C)C(=O)N3CCCc4ccccc43)nc2n1 (configuration not stated)
IC50: > 2 µM | IC90: > 2 µM

COc1cccc2c1N(S(=O)(=O)c1ccccc1C(F)(F)F)CCC2
IC50: > 2 µM | IC90: > 2 µM

O=C(Nc1nc2ccccc2[nH]1)C(Sc1ccccc1)c1ccccc1 (configuration not stated)
IC50: > 10 µM | IC90: > 10 µM

Cc1ccc(C)c(OCCN2CCN(CC(=O)Nc3c(C)cccc3C)CC2)c1
IC50: > 10 µM | IC90: > 10 µM

O=c1cc(CN2CCCc3ccc(C(F)(F)F)cc32)nc2sccn12
IC50: > 10 µM | IC90: > 10 µM

CCN(Cc1ccccc1)C(=O)c1cc(-c2ccccc2)nc2c1cnn2CC
IC50: > 10 µM | IC90: > 10 µM

Cc1ccc(COC(=O)c2cccc3c(=O)c(C)c(-c4ccccc4)oc23)cc1
IC50: > 10 µM | IC90: > 10 µM

Cc1[nH]c2ccc(C(=O)Nc3ccc(-n4cnnn4)cc3)cc2c1C
IC50: > 10 µM | IC90: > 10 µM

O=C(CNc1ccc(Oc2ccc(Br)cc2)cc1)NC1CC1
IC50: > 10 µM | IC90: > 10 µM

COc1ccc2oc(C(=O)Nc3nnc(C(C)C)s3)c(C)c2c1
IC50: 4.49 µM | IC90: > 10 µM

NS(=O)(=O)c1ccc2c(c1)CCN2Cc1ccc(Cl)cc1
IC50: > 2 µM | IC90: > 2 µM

CCC(C(=O)Nc1nc(C)c(Cc2ccc3c(c2)OCO3)s1)c1ccccc1 (configuration not stated)
IC50: > 10 µM | IC90: > 10 µM

CC(NC(=O)c1cccc(Nc2ncccn2)c1)c1cccc(C(F)(F)F)c1 (configuration not stated)
IC50: 0.729 µM | IC90: 6.34 µM

COc1cccc(-c2noc(COC(=O)c3ccc(C)s3)n2)c1
IC50: > 10 µM | IC90: > 10 µM

CCC(C)(C)NC(=O)CSc1nnc(/C=C/c2ccccc2C)[nH]1
IC50: > 10 µM | IC90: > 10 µM

COC(=O)c1ccc(NC(=O)Cc2ccc(NC(=O)OC(C)(C)C)cc2)c(C)c1
IC50: > 10 µM | IC90: > 10 µM

COCCNC(=O)CN(C)S(=O)(=O)c1ccc2c(c1)CCC(=O)N2
IC50: > 10 µM | IC90: > 10 µM

Cc1nc(SCc2nc(-c3cccs3)no2)c(C#N)c(C)c1C
IC50: 0.0298 µM | IC90: 0.683 µM

O=C(NCc1ccccc1CN1CCOCC1)c1cccc(C(F)(F)F)c1
IC50: > 10 µM | IC90: > 10 µM

COc1ccccc1NS(=O)(=O)c1ccc2nc(-c3ccncc3)[nH]c2c1
IC50: > 10 µM | IC90: > 10 µM

Cc1ccc(-n2c(C)cc(C(=O)CSc3n[nH]c(=O)n3C3CC3)c2C)cc1C
IC50: > 10 µM | IC90: > 10 µM

CC(=O)NCCNC(=O)c1ccc(OCC2CCCO2)cc1 (configuration not stated)
IC50: > 2 µM | IC90: > 2 µM

CC(OC(=O)c1n[nH]c(=O)c2ccccc12)C(=O)N(CCC#N)c1ccccc1 (configuration not stated)
IC50: > 10 µM | IC90: > 10 µM

CCCNC(=O)COc1ccc(Nc2ccccc2)cc1
IC50: > 10 µM | IC90: > 10 µM

CN1C(=O)N(CN2CCN(c3ccccn3)CC2)C(=O)C12CCCCC2
IC50: > 10 µM | IC90: > 10 µM
